Test results taken from ChEMBL document CHEMBL1127345, “Synthesis, binding properties, and 18F labeling of fluorocarazolol, a high-affinity beta-adrenergic receptor antagonist” (J Med Chem, 1994).

Columns and labels:
Type in all cases: physicochemical
[1] = The octanol-water partition coefficient at pH 10.0
[2] = The octanol-water partition coefficient at pH 10.8
[3] = The octanol-water partition coefficient at pH 4.5
[4] = The octanol-water partition coefficient at pH 5.8
[5] = The octanol-water partition coefficient at pH 6.4
[6] = The octanol-water partition coefficient at pH 7.0
[7] = The octanol-water partition coefficient at pH 7.5
[8] = The octanol-water partition coefficient at pH 9.4
[9] = The octanol-water partition coefficient at pH 3.3
[10] = The octanol-water partition coefficient at pH 8.3

Compound	logD [1]	logD [2]	logD [3]	logD [4]	logD [5]	logD [6]	logD [7]	logD [8]	logD [9]	logD [10]
CC(C)NCC(O)COc1cccc2[nH]c3ccccc3c12 (stereo not given) [CARAZOLOL]	2.5	2.43	0.3	0.42	0.68	1.07	1.51	2.44	0.17	2.13
CC(CF)NCC(O)COc1cccc2[nH]c3ccccc3c12 (stereo not given) [FLUOROCARAZOLOL]	2.81	2.81	0.38	1.11	1.76	2.2	2.48	2.8	0.03	2.7
